{"source": "patent US20170105947A1", "about": "“Appetite Suppressant Composition” (priority 2015, published 2017)", "key": {"[1]": {"conditions": "in vivo; cited from earlier work"}, "[2]": {"system": "gastric emptying", "conditions": "oral administration of 50-100 mg/kg, rats; cited from earlier work"}, "[3]": {"system": "rat intestinal cells", "conditions": "added to rat intestinal cells / lumen of the intestine; cited from earlier work"}, "[4]": {"assay": "food preference of dogs", "type": "in vivo", "conditions": "food containing 2,500 ppm vs untreated control", "description": "During this experience non-encapsulated trans-2-hexenal in combination with other chemicals were applied to feed."}, "[5]": {"conditions": "rats vs human intake of about 350 ug/kg/day; cited from earlier work"}, "[6]": {"conditions": "13 wk, rat, cited from earlier work"}}, "note": "Entries after “also recorded” stand apart in the source; their conditions may differ.", "data": [{"smiles": "CCCCCCCCCCC[C@@H](C[C@@H]1OC(=O)[C@H]1CCCCCC)OC(=O)[C@H](CC(C)C)NC=O", "note": "[Orlistat, tetrahydrolipstatin]", "values": [{"measurement": "known side effects", "setting": "[1]", "value": "steatorrhea, fecal incontinence, frequent bowel movements and urgency, compromised absorption of fat-soluble vitamins and nutrients, increased appetite and diminished effectiveness over time"}]}, {"smiles": "CCCCC/C=C/C=C/C=O", "note": "[trans, trans-2,4-decadienal]", "values": [{"measurement": "gastric emptying", "setting": "[2]", "value": "reduced gastric emptying"}, {"measurement": "level of CCK in vitro", "setting": "[3]", "value": "increased the level of CCK"}]}, {"smiles": "CCC/C=C/C=O", "note": "[trans-2-hexenal]", "values": [{"measurement": "food preference", "setting": "[4]", "value": "dogs preferred the untreated control"}, {"measurement": "toxic levels in rats relative to normal intake by humans", "setting": "[5]", "value": 30, "unit": "times"}, {"measurement": "body weight and intake", "setting": "[6]; 4000 ppm in diet", "value": "no significant reduction; also recorded: did not significantly affect feed intake or body weight"}, {"measurement": "changes in hematological parameters or organ weights", "setting": "[6]; dietary levels 0, 260, 640, 1600 or 4000 ppm", "value": "did not induce any changes"}]}]}
